# Experimental data reported in patent publication US8758816B2, “Compositions comprising azelastine and methods of use thereof” (priority 2004, dated 2014).
# Counter-ions that a name gives are not always drawn.
# Tested on: patients with seasonal allergic rhinitis (SAR)
# Assay: MP 428 study: individual symptom severity scores (runny nose, itchy nose, sneezing, congestion; 0-3 scale)
# Assay type: in vivo, human
# Conditions: Intent-to-Treat Population
# Protocol: A two-week, randomized, double-blind study, which evaluated the effects of the co-administration of ASTELIN® (azelastine hydrochloride (HCl)) and FLONASE® (fluticasone propionate) compared to either product alone in patients with seasonal allergic rhinitis (SAR) was conducted during the 2006 Texas mountain cedar season. After a 5-day placebo lead-in period, 151 patients with moderate-to-severe allergic rhinitis symptoms were randomized to either: (1) (49 total patients) ASTELIN® (azelastine hydrochloride (HCl)) plus placebo saline nasal spray 2 sprays per nostril, 15 minutes apart, twice daily (AM & PM); (2) (50 total patients) FLONASE® (fluticasone propionate) plus placebo saline nasal spray, 2 sprays per nostril, 15 minutes apart, once daily (AM) and two sessions of placebo saline nasal spray, 2 sprays per nostril, 15 minutes apart (PM); or (3) (52 total patients) the co-administration of ASTELIN® (azelastine hydrochloride (HCl)) 2 sprays per nostril plus FLONASE® (fluticasone propionate) 2 sprays per nostril (AM), 15 minutes apart, and ASTELIN® (azelastine hydrochloride (HCl)) 2 sprays per nostril plus placebo saline nasal spray, 15 minutes apart, (PM) for a 2-week double-blind treatment period.
# The primary efficacy variable was the change from baseline in the Total Nasal Symptom Score (TNSS), which comprised sneezing, itchy nose, runny nose, and nasal congestion (individual symptoms scores were assigned a value between 0 and 3, where 0=no symptoms and 3=severe symptoms). This study was not statistically designed to assess the differences between ASTELIN® and FLONASE®.
# The results of the clinical trial are summarized and presented in Appendix A hereinbelow and in FIGS. 1-6. […] FIGS. 2-5 show the mean improvement in severity score (0-3 scale) from baseline for the symptoms of runny nose, itchy nose, sneezing and congestion, respectively.
structure (smiles),measurement,setting,value
"CN1CCCC(n2nc(Cc3ccc(Cl)cc3)c3ccccc3c2=O)CC1 (racemic) [Azelastine, (±)-1-(2H)-phthalazinone, 4-[(4-chlorophenyl)methyl]-2-(hexahydro-1-methyl-1H-azepin-4-yl)-, mono-hydrochloride]","Change from Baseline in AM and PM Combined Nasal Symptom Score: Congestion, LS Mean",Day 2,−0.73
same,"Change from Baseline in AM and PM Combined Nasal Symptom Score: Congestion, Mean",Day 2,−0.78
same,"Change from Baseline in AM and PM Combined Nasal Symptom Score: Congestion, Median",Day 2,−0.17
same,"Change from Baseline in AM and PM Combined Nasal Symptom Score: Itchy Nose, LS Mean",Day 2,−0.58
same,"Change from Baseline in AM and PM Combined Nasal Symptom Score: Itchy Nose, Mean",Day 2,−0.61
same,"Change from Baseline in AM and PM Combined Nasal Symptom Score: Itchy Nose, Median",Day 2,−0.50
same,"Change from Baseline in AM and PM Combined Nasal Symptom Score: Runny Nose, LS Mean",Day 2,−0.70
same,"Change from Baseline in AM and PM Combined Nasal Symptom Score: Runny Nose, Mean",Day 2,−0.72
same,"Change from Baseline in AM and PM Combined Nasal Symptom Score: Runny Nose, Median",Day 2,−0.42
same,"Change from Baseline in AM and PM Combined Nasal Symptom Score: Sneezing, LS Mean",Day 2,−1.09
same,"Change from Baseline in AM and PM Combined Nasal Symptom Score: Sneezing, Mean",Day 2,−1.11
same,"Change from Baseline in AM and PM Combined Nasal Symptom Score: Sneezing, Median",Day 2,−0.90
same,"Percent Change from Baseline in AM and PM Combined Nasal Symptom Score: Congestion, LS Mean",Day 2,−13.19%
same,"Percent Change from Baseline in AM and PM Combined Nasal Symptom Score: Congestion, Mean",Day 2,−14.05%
same,"Percent Change from Baseline in AM and PM Combined Nasal Symptom Score: Congestion, Median",Day 2,−3.23%
same,"Percent Change from Baseline in AM and PM Combined Nasal Symptom Score: Itchy Nose, LS Mean",Day 2,−13.14%
same,"Percent Change from Baseline in AM and PM Combined Nasal Symptom Score: Itchy Nose, Mean",Day 2,−13.55%
same,"Percent Change from Baseline in AM and PM Combined Nasal Symptom Score: Itchy Nose, Median",Day 2,−11.11%
same,"Percent Change from Baseline in AM and PM Combined Nasal Symptom Score: Runny Nose, LS Mean",Day 2,−13.68%
same,"Percent Change from Baseline in AM and PM Combined Nasal Symptom Score: Runny Nose, Mean",Day 2,−14.08%
same,"Percent Change from Baseline in AM and PM Combined Nasal Symptom Score: Runny Nose, Median",Day 2,−7.98%
same,"Percent Change from Baseline in AM and PM Combined Nasal Symptom Score: Sneezing, LS Mean",Day 2,−26.72%
same,"Percent Change from Baseline in AM and PM Combined Nasal Symptom Score: Sneezing, Mean",Day 2,−26.94%
same,"Percent Change from Baseline in AM and PM Combined Nasal Symptom Score: Sneezing, Median",Day 2,−21.05%
same,"Change from Baseline in AM and PM Combined Nasal Symptom Score: Congestion, LS Mean",Day 3,−0.62
same,"Change from Baseline in AM and PM Combined Nasal Symptom Score: Congestion, Mean",Day 3,−0.68
same,"Change from Baseline in AM and PM Combined Nasal Symptom Score: Congestion, Median",Day 3,0.00
same,"Change from Baseline in AM and PM Combined Nasal Symptom Score: Itchy Nose, LS Mean",Day 3,−0.85
same,"Change from Baseline in AM and PM Combined Nasal Symptom Score: Itchy Nose, Mean",Day 3,−0.84
same,"Change from Baseline in AM and PM Combined Nasal Symptom Score: Itchy Nose, Median",Day 3,−0.75
same,"Change from Baseline in AM and PM Combined Nasal Symptom Score: Runny Nose, LS Mean",Day 3,−0.74
same,"Change from Baseline in AM and PM Combined Nasal Symptom Score: Runny Nose, Mean",Day 3,−0.79
same,"Change from Baseline in AM and PM Combined Nasal Symptom Score: Runny Nose, Median",Day 3,−1.00
same,"Change from Baseline in AM and PM Combined Nasal Symptom Score: Sneezing, LS Mean",Day 3,−0.99
same,"Change from Baseline in AM and PM Combined Nasal Symptom Score: Sneezing, Mean",Day 3,−0.97
same,"Change from Baseline in AM and PM Combined Nasal Symptom Score: Sneezing, Median",Day 3,−0.77
same,"Percent Change from Baseline in AM and PM Combined Nasal Symptom Score: Congestion, LS Mean",Day 3,−10.71%
same,"Percent Change from Baseline in AM and PM Combined Nasal Symptom Score: Congestion, Mean",Day 3,−11.70%
same,"Percent Change from Baseline in AM and PM Combined Nasal Symptom Score: Congestion, Median",Day 3,0.00%
same,"Percent Change from Baseline in AM and PM Combined Nasal Symptom Score: Itchy Nose, LS Mean",Day 3,−19.04%
same,"Percent Change from Baseline in AM and PM Combined Nasal Symptom Score: Itchy Nose, Mean",Day 3,−18.60%
same,"Percent Change from Baseline in AM and PM Combined Nasal Symptom Score: Itchy Nose, Median",Day 3,−16.67%
same,"Percent Change from Baseline in AM and PM Combined Nasal Symptom Score: Runny Nose, LS Mean",Day 3,−13.72%
same,"Percent Change from Baseline in AM and PM Combined Nasal Symptom Score: Runny Nose, Mean",Day 3,−14.69%
same,"Percent Change from Baseline in AM and PM Combined Nasal Symptom Score: Runny Nose, Median",Day 3,−16.67%
same,"Percent Change from Baseline in AM and PM Combined Nasal Symptom Score: Sneezing, LS Mean",Day 3,−23.56%
same,"Percent Change from Baseline in AM and PM Combined Nasal Symptom Score: Sneezing, Mean",Day 3,−22.81%
same,"Percent Change from Baseline in AM and PM Combined Nasal Symptom Score: Sneezing, Median",Day 3,−16.08%
same,"Change from Baseline in AM and PM Combined Nasal Symptom Score: Congestion, LS Mean",Day 4,−0.78
same,"Change from Baseline in AM and PM Combined Nasal Symptom Score: Congestion, Mean",Day 4,−0.82
same,"Change from Baseline in AM and PM Combined Nasal Symptom Score: Congestion, Median",Day 4,−0.92
same,"Change from Baseline in AM and PM Combined Nasal Symptom Score: Itchy Nose, LS Mean",Day 4,−1.01
same,"Change from Baseline in AM and PM Combined Nasal Symptom Score: Itchy Nose, Mean",Day 4,−1.00
same,"Change from Baseline in AM and PM Combined Nasal Symptom Score: Itchy Nose, Median",Day 4,−0.73
same,"Change from Baseline in AM and PM Combined Nasal Symptom Score: Runny Nose, LS Mean",Day 4,−0.76
same,"Change from Baseline in AM and PM Combined Nasal Symptom Score: Runny Nose, Mean",Day 4,−0.79
same,"Change from Baseline in AM and PM Combined Nasal Symptom Score: Runny Nose, Median",Day 4,−0.43
same,"Change from Baseline in AM and PM Combined Nasal Symptom Score: Sneezing, LS Mean",Day 4,−1.34
same,"Change from Baseline in AM and PM Combined Nasal Symptom Score: Sneezing, Mean",Day 4,−1.32
same,"Change from Baseline in AM and PM Combined Nasal Symptom Score: Sneezing, Median",Day 4,−1.00
same,"Percent Change from Baseline in AM and PM Combined Nasal Symptom Score: Congestion, LS Mean",Day 4,−13.79%
same,"Percent Change from Baseline in AM and PM Combined Nasal Symptom Score: Congestion, Mean",Day 4,−14.44%
same,"Percent Change from Baseline in AM and PM Combined Nasal Symptom Score: Congestion, Median",Day 4,−16.67%
same,"Percent Change from Baseline in AM and PM Combined Nasal Symptom Score: Itchy Nose, LS Mean",Day 4,−22.54%
same,"Percent Change from Baseline in AM and PM Combined Nasal Symptom Score: Itchy Nose, Mean",Day 4,−22.23%
same,"Percent Change from Baseline in AM and PM Combined Nasal Symptom Score: Itchy Nose, Median",Day 4,−13.79%
same,"Percent Change from Baseline in AM and PM Combined Nasal Symptom Score: Runny Nose, LS Mean",Day 4,−15.76%
same,"Percent Change from Baseline in AM and PM Combined Nasal Symptom Score: Runny Nose, Mean",Day 4,−16.23%
same,"Percent Change from Baseline in AM and PM Combined Nasal Symptom Score: Runny Nose, Median",Day 4,−7.98%
same,"Percent Change from Baseline in AM and PM Combined Nasal Symptom Score: Sneezing, LS Mean",Day 4,−32.76%
same,"Percent Change from Baseline in AM and PM Combined Nasal Symptom Score: Sneezing, Mean",Day 4,−31.90%
same,"Percent Change from Baseline in AM and PM Combined Nasal Symptom Score: Sneezing, Median",Day 4,−25.00%
same,"Change from Baseline in AM and PM Combined Nasal Symptom Score: Congestion, LS Mean",Day 5,−1.02
same,"Change from Baseline in AM and PM Combined Nasal Symptom Score: Congestion, Mean",Day 5,−1.07
same,"Change from Baseline in AM and PM Combined Nasal Symptom Score: Congestion, Median",Day 5,−0.90
same,"Change from Baseline in AM and PM Combined Nasal Symptom Score: Itchy Nose, LS Mean",Day 5,−1.11
same,"Change from Baseline in AM and PM Combined Nasal Symptom Score: Itchy Nose, Mean",Day 5,−1.10
same,"Change from Baseline in AM and PM Combined Nasal Symptom Score: Itchy Nose, Median",Day 5,−0.75
same,"Change from Baseline in AM and PM Combined Nasal Symptom Score: Runny Nose, LS Mean",Day 5,−0.96
same,"Change from Baseline in AM and PM Combined Nasal Symptom Score: Runny Nose, Mean",Day 5,−0.97
same,"Change from Baseline in AM and PM Combined Nasal Symptom Score: Runny Nose, Median",Day 5,−0.67
same,"Change from Baseline in AM and PM Combined Nasal Symptom Score: Sneezing, LS Mean",Day 5,−1.36
same,"Change from Baseline in AM and PM Combined Nasal Symptom Score: Sneezing, Mean",Day 5,−1.34
same,"Change from Baseline in AM and PM Combined Nasal Symptom Score: Sneezing, Median",Day 5,−1.03
